Reference: patent publication US8729077B2, “Anti-viral compounds, compositions, and methods of use” (GlaxoSmithKline LLC, priority 2008, dated 2014)

Key:
[1] = tested on: HCV genotype 1a subgenomic replicon; assay: HCV replicon assay, genotype 1a (luciferase); type: cell-based; details: Hepatitis C virus; genotype 1a replicon stable cell line; luciferase activity measured 48 hours later; 10 point dose response; read-out: 1A pEC50 (converted)
Procedure: (§1) Protocol for Testing and Data Analysis of Compounds in the HCV Replicon Assay
(§2) Compounds were assayed for activity against HCV using the genotype 1a and 1b subgenomic replicon model systems. Stable cell lines bearing the genotype 1a and 1b replicons were used for screening of compounds. Both replicons are bicistronic and contain the firefly luciferase gene. The ET cell line is stably transfected with RNA transcripts harboring a I389luc-ubi-neo/NS3-3′/ET replicon with firefly luciferase-ubiquitin-neomycin phosphotransferase fusion protein and EMCV-IRES driven NS3-5B polyprotein containing the cell culture adaptive mutations (E1202G; T1280I; K1846T) (Krieger at al, 2001 and unpublished). The genotype 1a replicon is a stable cell line licensed from Apath LLC, modified to contain the firefly luciferase gene. The cells were grown in DMEM, supplemented with 10% fetal calf serum, 2 mM Glutamine, Penicillin (100 IU/mL)/Streptomycin (100 μg/mL), 1× nonessential amino acids, and 250-500 μg/mL G418 (“Geneticin”). They were all available through Life Technologies (Bethesda, Md.). The cells were plated at 0.5×10^4 cells/well in 384 well plates containing compounds. The final concentration of compounds ranged between 0.03 pM to […] and the final DMSO concentration of 0.5-1%.
(§3) Luciferase activity was measured 48 hours later by adding a Steady glo (Promega, Madison, Wis.). Percent inhibition of replication data was plotted relative to no compound control. Under the same condition, cytotoxicity of the compounds was determined using cell titer glo (Promega, Madison, Wis.). EC50s were determined from a 10 point dose response curve using 3-4-fold serial dilution for each compound, which spans a concentration range >1000 fold. BioAssay determines the level of inhibition for each compound by normalizing cross-talk corrected plate values against the negative (low or background, cells with no compound present) and positive (high DMSO, no cells) controls to determine Percent Inhibition:
(§4) These normalized values are exported to EC50 where they are plotted against the molar compound concentrations using the standard four parameter logistic equation:
(§5) A=minimum y D=slope factor
(§6) B=maximum y x=log10 compound concentration [M]

[2] = tested on: HCV genotype 1b subgenomic replicon; assay: HCV replicon assay, genotype 1b (luciferase, ET cell line); type: cell-based; details: Hepatitis C virus; genotype 1b replicon (ET cell line); luciferase activity measured 48 hours later; 10 point dose response; read-out: 1B pEC50 (converted)
Procedure: as §1, §2, §3, §4, §5, §6

Work on `COC(=O)N[C@H](C(=O)N1CC(C2CC2)=C[C@H]1c1ncc(-c2ccc(-c3ccc(-c4cnc([C@@H]5CCCN5C(=O)[C@@H](NC(=O)OC)C(C)C)[nH]4)cc3)cc2)[nH]1)C(C)C` [example 11, methyl[(1S)-1-({(2S)-2-[4-(4′-{2-[(2S)-4-cyclopropyl-1-((2S)-3-methyl-2-{[(methyloxy)carbonyl]amino}butanoyl)-2,5-dihydro-1H-pyrrol-2-yl]-1H-imidazol-4-yl}-4-biphenylyl)-1H-imidazol-2-yl]-1-pyrrolidinyl}carbonyl)-2-methylpropyl]carbamate] yielded an EC50 [1] of 0.0126 nM and an EC50 [2] of 0.00468 nM.
`COC(=O)N[C@H](C(=O)N1CCC[C@H]1c1ncc(-c2ccc(-c3ccc(-c4cnc([C@@H]5C=C(C)CN5C(=O)[C@H](NC(=O)OC)C(C)C)[nH]4)cc3)cc2)[nH]1)C(C)C` [example 9, (1-{(S)-2-[5-(4′-{2-[(S)-1-((R)-2-Methoxycarbonylamino-3-methyl-butyryl)-4-methyl-2,5-dihydro-1H-pyrrol-2-yl]-3H-imidazol-4-yl}-biphenyl-4-yl)-1H-imidazol-2-yl]-pyrrolidine-1-carbonyl}-2-methyl-propyl)-carbamic acid methyl ester] gave an EC50 [1] of 0.0158 nM and an EC50 [2] of 0.00776 nM.
`CCC1=C[C@@H](c2ncc(-c3ccc(-c4ccc(-c5cnc([C@@H]6CCCN6C(=O)C(NC(=O)OC)C(C)C)[nH]5)cc4)cc3)[nH]2)N(C(=O)[C@H](NC(=O)OC)C(C)C)C1` (stereo partly drawn) [example 10, (1-{(S)-2-[5-(4′-{2-[(S)-4-Ethyl-1-((R)-2-methoxycarbonylamino-3-methyl-butyryl)-2,5-dihydro-1H-pyrrol-2-yl]-3H-imidazol-4-yl}-biphenyl-4-yl)-1H-imidazol-2-yl]-pyrrolidine-1-carbonyl]-2-methyl-propyl)-carbamic acid methyl ester] gave an EC50 [1] of 0.0316 nM and an EC50 [2] of 0.00603 nM.
`CC=C1C[C@@H](c2ncc(-c3ccc(-c4ccc(-c5cnc([C@@H]6CCCN6C(=O)C(NC(=O)OC)C(C)C)[nH]5)cc4)cc3)[nH]2)N(C(=O)C(NC(=O)OC)C(C)C)C1` (stereo partly drawn) [example 12, (1-{(S)-2-[5-(4′-{2-[(S)-4-Ethylidene-1-(2-methoxycarbonylamino-3-methyl-butyryl)-pyrrolidin-2-yl]-3H-imidazol-4-yl}-biphenyl-4-yl)-1H-imidazol-2-yl]-pyrrolidine-1-carbonyl}-2-methyl-propyl)-carbamic acid methyl ester] gave an EC50 [1] of 0.0158 nM and an EC50 [2] of 0.00437 nM.
Molecule `CN(C)[C@@H](C(=O)N1CCC[C@H]1c1nc(-c2ccc(-c3ccc(-c4c[nH]c([C@@H]5COC6(CCOCC6)N5C(=O)OCc5ccccc5)n4)cc3)cc2)c[nH]1)c1ccccc1` [example 1] has an EC50 [1] of 1.58 nM and an EC50 [2] of 0.00347 nM.
